These results are taken from patent publication US20260167829A1, “USES OF DIAZIRINES” (Nanyang Technological University, priority 2022, published 2026).

“Also recorded” adds a separate entry of the source.

Data set [1] can be described thus: UV/VIS spectroscopy, molar absorption. The class given is physicochemical. On the procedure:
The solution is then added to UV/VIS quartz tube with a path length of 1 cm. The background is normalized to chloroform. The samples are tested in the wavelength range of 200 to 800 nm at a medium scan rate of 2 nm, and a slit width of 0.5 nm. Data are collected in absorbance values (A) against wavelength (nm).

For data set [2], the system named is 3T3 fibroblasts or HeLa cell lines. Nature of the data set: In vitro biocompatibility Alamar Blue assay. The note with it: 48 hours of incubation; all concentrations (0.01-1 mM). The data set is classed as cell-based. On the procedure:
Cells seeded in wells (5 replicates for each group) with 100 μl DMEM media (10% FBS, 1% antibiotic). Incubated for 24 and 48 h, in a 96-well plate, 10000 cells/well, using 3T3 fibroblasts or HeLa cell lines. After 24 h, DMEM media replaced with 100 μl DMEM with dissolved test compounds (Test compounds dissolved in DMEM media to obtain final conc. of 1, 0.5, 0.1, 0.01 mM). After 24 hours of incubation, 10 μl resazurin solution (0.015%) dissolved in PBS was added to the wells followed by incubation for 3 hours. Readings taken post 24 hours and 48 hours of sample addition. (Ex-570 nm, Em-590 nm), Controls: Blank media without cells, Media with cells, Readings for (Blank media without cells) subtracted from all groups, Readings normalized against (media with cells group—100%)
In general terms: Resazurin is reduced to fluorescent resorufin, in cell work by metabolically active cells.

A short description of data set [3]: Photorheometry of CaproGlu binary formulations (365 nm UVA, 10 J·cm^−2). The class given is physicochemical. The conditions noted are these: neat component of Table 3; steady state viscosity, shear rate 10 sec^−1. On the procedure:
Rheometry was carried out on an Anton Paar MCR 102 rheometer (Anton Paar, Singapore) with a custom photocuring setup as described previously (Djordjevic, I. et al., Biomaterials 2020, 260, 120215). A PP10 parallel plate stainless steel probe was used, with a 0.2 mm measuring gap. Steady State Viscosity was measured first (shear rate 10 sec^−1), followed by a dynamic oscillatory strain measurement during photocuring (UV ON at 30 seconds, off at 2 minutes 10 seconds, 1% shear, frequency 10 Hz, amplitude 1%), then an Amplitude Sweep (shear 1-1000-%, angular frequency 10 rad-sec^−1). In reporting of G′ and G″, a smoothing function was applied. The UV lamp used was a Thor Labs 365 nm SOLIS High-Power LED connected to a DC2200 LED Driver set to constant current mode. […]
Covalent crosslinking was monitored via complex shear modulus (G*), which was measured on a custom photorheometer fitted with a narrow-band 365 nm UV diode and normal-force load cell. […] Dynamic viscosity, G′ (storage modulus), G″ (loss modulus), and normal force (caused by expansion/contraction of polymer matrix) were continually monitored and subsequently analysed for yield stress/strain with an amplitude sweep. Functional groups were qualitatively assessed before and after curing via ATR-FTIR spectroscopy to observe consumption. […]

The nature of data set [4]: Stability of PEGDA/PTHT mixtures with photoinitiator under indoor light. The data set is classed as physicochemical. The note with it: PEGDA+PTHT 2:1 binary mixture, 1 mol % initiator, no solvent. On the procedure: Polyethylene glycol diacrylate (Mw˜575 Da), referred to as “PEGDA” further in text is used in all the experiments. PEGDA/PTHT samples are prepared by magnetic stirring of PEGDA and PTHT polymer blend (2:1 molar ratio) with diazirine photoinitiators (1 mol % DzOH or 1 mol % CG relative to the total number of mols of PEGDA in each sample). Samples with standard TPO photoinitiator (1 mol %) are used as controls. The mixing of compounds (PEGDA+PTHT) in binary mixture with photoinitiators (DzOH, CG and TPO) is completed without any solvent.

With `O=C(O)c1ccc(C2(C(F)(F)F)N=N2)cc1` [DzCOOH, 4-[3-(Trifluoromethyl)-3H-diazirin-3-yl]benzoic acid], the “absorbance above 400 nm” value in data set [1] (previous UV-Vis studies) is “does not have an absorbance above 400 nm”.
As for `OCc1ccc(C2(C(F)(F)F)N=N2)cc1` [DzOH, 4-[3-(Trifluoromethyl)-3H-diazirin-3-yl]benzyl alcohol], the Cell viability entry in data set [2] is reported as “not significantly different from control”.
Consider `O=C(CCS)OCC(COC(=O)CCS)(COC(=O)CCS)COC(=O)CCS` [PTHT, pentaerythritol tetrakis 3-mercaptopropionate], for which, in data set [3], the viscosity entry is “[drawing 17] PTHT, Mw = 488.66 g · mol^-1, viscosity = 667 ± 49 mPa · s mPa·s”.
Compound `Cc1cc(C)c(C(=O)P(=O)(c2ccccc2)c2ccccc2)c(C)c1` [TPO, Diphenyl(2,4,6-trimethylbenzoyl)phosphine oxide] gave a molar absorption coefficient in data set [1] (@ 381 nm) of 520 cm^−1M^−1. Further, the “stability under indoor lighting” value in data set [4] was “activated under indoor light; also recorded: unstable and prematurely crosslinked under fluorescent lights and white LED emitters”.
